Assay results as given in patent US20200316087A1, “NOVEL COMBINATION THERAPY FOR ANXIETY DISORDERS, EPILEPSY, AND PAIN” (priority 2017, published 2020).

Legend:
PTZ seizure threshold = test: Pentylenetetrazole (PTZ, i.v.)-induced seizure threshold; format: in vivo, rats
Protocol: Male […] Sprague-Dawley rats (Indianapolis, Ind.) were randomly assigned to treatment groups and dosed with vehicle (vehicle=1% carboxymethyl cellulose) with diazepam (0.1, 0.3, or 1 mg/kg) or test compound (3, 10, 30, or 60 mg/kg) 30 minutes prior to testing. Rats were placed in a restrainer and a winged infusion needle was inserted into the lateral tail vein. Intravenous infusion with 10 mg/ml PTZ at a rate of 0.5 ml/min was initiated until a clonic convulsion occurred, and the time to clonic convulsion was recorded in sec or a maximum of 4 min was recorded. Following infusion, rats are euthanized. The dose of PTZ required to elicit a clonic convulsion was calculated using the infusion rate, concentration of PTZ, time to clonic convulsion, and animal weight.

[1] = tested on: motor performance on inverted screen
Protocol: Without prior pretraining, mice were placed on an 11 cm×14 cm square of round hole, perforated stainless steel mesh (18 holes/square inch, 3/16 inch diameter, ¼ inch staggered centers, 50% open area) mounted on a metal rod, 35 cm above the table top. The screen was slowly inverted such that the mouse was on the underside of the screen. Mice were then scored for 60 sec as follows: 0=climbed to top of screen, 1=hung onto bottom of screen, 2=fell off. Data were analyzed by ANOVA followed by post-hoc Dunnett's test.
The test compounds were suspended in 1% hydroxyethylcellulose/0.05% Tween 80/0.05% Dow antifoam. […] Compounds were administered in a volume of 10 ml/kg and were given 30 min prior to testing via the i.p. route of administration; diazepam was dosed orally, 30 min prior to testing.

PTZ-induced clonus = test: Pentylenetetrazole (PTZ, 35 mg/kg s.c.)-induced clonic convulsions; format: in vivo
Protocol: After the inverted screen test, the rats were dosed with pentylenetetrazole (PTZ)(35 mg/kg, s.c.) in a volume of 1 ml/kg and placed in an observation cage (40.6×20.3×15.2 cm) with a floor containing […] of wood chip bedding material. PTZ dose was determined to be ˜EC97 for producing clonic convulsions.

[2] = tested on: electroshock-induced seizures; test: Mouse electroshock-induced seizure model; format: in vivo; conditions: mice
Protocol: This assay detects effects of compounds that produce generalized seizures and those that dampen seizure spread. Male, CD1 mice (Taconic Farms) were studied at weights of 21-32 g. Mice=10/dose) were used with Wahlquist Model H stimulator with 0.2 sec stimulation with corneal electrodes. […] Mice were euthanized immediately following the test. Tonic extension was used as the primary endpoint.
For the in vivo assays, minimal effective doses (MED) were calculated in mg/kg. MED was defined as the lowest dose administered that produced statistically significant protection compared to vehicle control in the anticonvulsant assays. The MED, or minimal toxic dose (MTD) for motor impairment, was the minimal dose required to produce statistically-significant impairment in motor performance. Doses tested are shown in the figures and tables and are generally dosed in ½ log increments. The protective index (PT) was calculated at the MTD/MED.

[3] = tested on: immobility in forced-swim test; test: Forced-swim assay; format: in vivo, mice; conditions: diazepam 22 mg/kg p.o. alone, mice
Protocol: Male NIH Swiss mice (Envigo, Indianapolis, Ind.) were studied. Mice were placed in clear plastic cylinders (diameter: 10 cm; height: 25 cm) filled with 6 cm of water (22-25° C.) for six min. […] The duration of immobility during the last four min of the six min test period was scored. A mouse was recorded as immobile when floating motionless or making only those movements necessary to keep its head above water.

[4] = tested on: seizures in amygdala kindled rats; test: Basolateral amygdala kindling; format: in vivo
Protocol: Seizure kindling models evaluate effects of drugs on the sensitization of the nervous system to seizure induction. In this test, drugs were evaluated for their ability to impact seizure parameters in rats that were fully kindled by daily electrical stimulation of their amygdala. Valproic acid was used as a positive control. Experiments were conducted using the general procedures of Zwart et al. (J. Pharmacol. Exp. Ther., 2014, 351:124-133). A bipolar electrode for electrical stimulation and EEG recording was stereotaxically implanted into one hemisphere of the basolateral amygdala (AP −2.2, ML −4.8, DV −8.5 mm, relative to bregma) of male Wistar rats. After post-operative recovery, electrical kindling begins, where a subthreshold constant current (400 μA, 1 ms, monophasic square-wave pulses, 60 Hz for 1 sec) is given once a day Monday-Friday for about 4-6 weeks until a rat is fully kindled. A fully kindled rat has experienced 10 consecutive stage 5 seizures or 10 of its last 12 were stage 5 according to the Racine Scale.
Twelve fully kindled rats were assigned to this study, and eight rats were selected and randomized to initial compound treatment groups from baseline after discharge threshold (ADT), seizure severity score, and after discharge duration (ADD). […] On test day, rats were dosed 30 min prior to beginning stimulation. After the pre-treatment, rats were stimulated using an ascending staircase sequence beginning at 10 μA and increasing in log unit steps of 10, 16, 25, 40, 65, 100, 160, 250, and 400 μA. Animals were stimulated until they were assigned a Seizure Severity Score for a visually observably seizure or they reached the 400 μA threshold limit. ADD was determined following testing. ADT was the current that induced a seizure; measurements were scale-adjusted to capture the stimulation scale change required to observe a seizure from the previous baseline to the ADT scored on test day. […] The average scale adjusted ADT was approximately 0.63 μA in vehicle treated rats.
Racine score of behavioral response to stimulation: 0=no behavioral response; 1=immobility, staring and/or facial clonus; 2=head nodding, jaw clonus, and/or tongue protrusion; 3=unilateral forelimb clonus; 4=bilateral forelimb clonus and/or rearing; 5=bilateral forelimb clonus with rearing and loss of balance.
After-Discharge Duration (ADD) is the duration of the first after-discharge.
ADT, ADD, and severity scores were analyzed by ANOVA. Seizure severity data was also analyzed by the nonparametric Skillings-Mack test, a generalization of the Friedman test for one-way repeated measures designs. Posthoc tests when reported were either by Dunnett's method (seizure severity) or using Wilcoxon sign rank tests (ADT and ADD). Valproic acid, used as a positive control was not used in ANOVA calculations.

CN1C(=O)CN=C(c2ccccc2)c2cc(Cl)ccc21 [Diazepam, diazepam, reference compound]
PTZ Threshold to Criteria (PTZ seizure threshold; MED for producing ≥2× PTZ seizure threshold at baseline): >1 mg/kg | potency relative to KRM-II-81 and KRM-II-82 (PTZ seizure threshold; PTZ seizure threshold, rats): about 10 times | PTZ Threshold Poteny (MED) (PTZ seizure threshold; lowest dose with statistically significant effect, rats, PTZ i.v.): 1 mg/kg | effect on dose of PTZ required to induce convulsions (PTZ seizure threshold; rats, PTZ i.v. infusion, pretreatment 30 min): increased the dose of PTZ required to induce convulsions | motor impairment on inverted screen ([1]; diazepam 22 mg/kg p.o., mice): still significant but not maximal | motor impairment score on inverted screen test ([1]; diazepam 30 mg/kg p.o., prior data, out of 2.0): 1.8 | PTZ Clonus to Criteria 1 (PTZ-induced clonus; MED producing maximal protection (0% seizures), rats): 10 mg/kg | potency relative to KRM-II-81 to induce full seizure protection (PTZ-induced clonus; PTZ-induced clonus, rats): 10 × | convulsions (rats convulsing/tested) after PTZ (PTZ-induced clonus; diazepam 30 mg/kg p.o. + PTZ): 0/5 | PTZ Clonus Potency (MED) (PTZ-induced clonus; lowest dose with statistically significant protection, rats, PTZ 35 mg/kg s.c.): 10 mg/kg | protection against PTZ-induced clonus (PTZ-induced clonus; rats, PTZ 35 mg/kg s.c.): fully prevented | potency relative to KRM-II-81 to induce full seizure protection ([2]; electroshock): 5 × | Electroshock (minimal effective dose, MED) ([2]; lowest dose with statistically significant protection vs vehicle): 3 mg/kg | protection against electroshock-induced seizures [2]: fully prevented | antidepressant-like effect in forced-swim assay [3]: did not produce an antidepressant-like effect | After-Discharge Duration to Criteria ([4]; MED for producing after-discharge duration ≤30 sec): >10 mg/kg | After-Discharge Threshold to Criteria ([4]; MED for producing after-discharge threshold ≥3): >10 mg/kg | Seizure Severity to Criteria ([4]; MED for producing seizure severity score ≤2): 10 mg/kg | After-Discharge Duration Potency (MED) ([4]; amygdala kindled rats): >10 mg/kg | After-Discharge Threshold Potency (MED) ([4]; amygdala kindled rats): 10 mg/kg | Seizure Severity Poteny (MED) ([4]; amygdala kindled rats): 10 mg/kg | effect on adjusted after-discharge threshold (ADT) ([4]; amygdala kindled rats): significantly increased | effect on after-discharge duration (ADD) ([4]; amygdala kindled rats): trend for a significant effect | effect on seizure severity score / kindling measures ([4]; amygdala kindled rats): decreased significantly | Seizure free scores (seizure severity=0) ([4]; amygdala kindled rats, groups of 8): 2/8
